Assay results taken from PubChem BioAssay (NCI).
Values joined by “and” are separate entries in the source; they are usually repeats but may differ in a detail not shown here. Identical values can stand only once.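 Results reflect a 48-hour exposure of cells in 96-well plates to compound at five concentrations. GI50 marks 50% less growth. TGI is the concentration that stops growth completely.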

Legend:
Experiment in all cases: inhibition of tumour cell growth, NCI panel, 48 h
A549 NSCLC = test system: A549 NSCLC
HOP-62 NSCLC = test system: HOP-62 NSCLC
HT29 colon = test system: HT29 colon
NCI-H522 lung = test system: NCI-H522 lung
SF-539 CNS = test system: SF-539 CNS
SK-MEL-5 melanoma = test system: SK-MEL-5 melanoma
SN12C renal = test system: SN12C renal
SR leukemia = test system: SR leukemia
UACC-257 melanoma = test system: UACC-257 melanoma
UO-31 renal = test system: UO-31 renal

SMILES | GI50 (A549 NSCLC) [µM] | TGI (A549 NSCLC) [µM] | GI50 (HOP-62 NSCLC) [µM] | TGI (HOP-62 NSCLC) [µM] | GI50 (HT29 colon) [µM] | TGI (HT29 colon) [µM] | GI50 (NCI-H522 lung) [µM] | TGI (NCI-H522 lung) [µM] | GI50 (SF-539 CNS) [µM] | TGI (SF-539 CNS) | GI50 (SK-MEL-5 melanoma) [µM] | TGI (SK-MEL-5 melanoma) [µM] | GI50 (SN12C renal) [µM] | TGI (SN12C renal) [µM] | GI50 (SR leukemia) [µM] | TGI (SR leukemia) [µM] | GI50 (UACC-257 melanoma) [µM] | TGI (UACC-257 melanoma) [µM] | GI50 (UO-31 renal) [µM] | TGI (UO-31 renal) [µM]
CC(=O)OC1CCC2(C)C(=CCC3C4CC(CN5CC5)C(=O)C4(C)CCC32)C1 (stereo not given) | 15.3 | 42.2 | 18.8 | 33.6 | 3.39 | 12.6 | 1.52 | 3.26 | 13.5 | 26.9 µM | 12.7 | 25.9 | 15.4 | 30.4 | 3.39 | 13.5 | 12.9 | 26.4 | 2.99 | 10.4
CC(C)=NO.CC(C)=NO.CC(C)=NO.CC(C)=NO.[Ti] | > 100 | > 100 | > 100 | > 100 | > 100 | > 100 | > 100 | > 100 | > 100 | > 100 µM | > 100 | > 100 | > 100 | > 100 |  |  | > 100 | > 100 | > 100 | > 100
CCOC(=O)C1C(=O)C(=O)N2CCc3c([nH]c4ccccc34)C12 (stereo not given) |  | > 100 |  | > 100 |  | > 100 |  | > 100 |  | > 100 µM |  | > 100 |  | > 100 |  | > 100 |  |  |  | > 100
CN1C/C(=C\c2ccco2)c2nc(N)nc(-c3ccco3)c2C1 |  | > 100 |  | > 100 |  | > 100 |  | > 100 |  | > 100 µM |  | > 100 |  | > 100 |  |  |  | > 100 |  | > 100
CC1=C2[C@@H](c3ccccc3)C3C=CC2(C=C3C(F)(F)F)N(C(=O)NC2CCCCC2)C1=O (stereo not given in full) |  | > 100 |  | > 100 |  | > 100 |  |  |  | > 100 µM |  | > 100 |  | > 100 |  | 66.8 |  | > 100 |  | > 100
NC1=NN(c2ccccc2)C(=O)C1/C(=N\NC(=O)c1cc2ccccc2cc1O)C(=O)Nc1ccc(Cl)cc1 (stereo not given) |  | > 100 |  | > 100 |  | > 100 |  | 83.4 |  | 69.3 µM |  | 56.5 |  | > 100 |  |  |  | 80.4 |  | 96.1
CCn1c(SC)nnc1-c1cc2c([nH]c3ccccc32)c(-c2cccc(O)c2)n1 | 3.61 | 62.9 | 2.87 | 15.8 | 3.41 | 12.5 | 1.06 | 11.8 | 1.46 | 3.74 µM | 1.03 | 5.97 | 4.44 | 51.4 | 0.34 | > 100 |  |  | 1.94 | 15.8
Cc1cc(C2(c3cc(C)c(O)c4ncccc34)OC(=O)c3ccccc32)c2cccnc2c1O |  | 14 | 0.643 | > 100 | 0.106 | > 100 |  | > 100 | 0.02 | 4.69 µM and 11.7 µM |  | 0.0574 |  | 12.1 |  |  | 0.496 | > 100 |  | 
Cc1cc2c(=O)cc(-c3ccncc3)oc2c(C(=O)O)c1C |  | > 100 |  | > 100 |  | > 100 |  |  |  | > 100 µM |  |  |  | > 100 |  | > 100 |  | > 100 |  | > 100
N#Cc1c(N/N=C/c2c(Cl)cccc2Cl)nc(N)nc1N1CCCC1 | 3.65 | > 100 | 1.7 | > 100 | 1.96 | > 100 | 2.63 | 13.3 | 1.77 | 5.58 µM | 0.722 | 7.11 | 4.68 | > 100 | 0.795 | 3.03 |  |  | 5.36 | > 100
Nc1nc(N)c(-c2ccccc2)c(C(=O)Nc2nccs2)n1 |  | > 100 |  | > 100 |  | > 100 |  |  |  | > 100 µM |  | > 100 |  | > 100 |  |  |  | > 100 |  | > 100
CC(C)c1nc(Cl)c(Cl)c(Cl)n1 |  | > 41.3 |  | 25.9 |  | 17.9 |  | 8.64 |  | 25.2 µM |  | 30.9 |  | 16.9 |  |  |  | 17.8 |  | 2.66
Oc1ccc(CCNc2nc3ccccc3c3[nH]c4ccccc4c23)cc1 | 1.33 | 2.75 | 1.63 | 3.35 |  |  |  |  | 1.73 | 3.19 µM | 1.75 | 3.15 | 1.27 | 2.62 | 1.48 | > 100 | 1.94 | 3.46 |  | 
CN(C)c1ccc(/C=C2\Cc3ccccc3C2=O)cc1Br |  | > 100 |  | > 100 |  | > 100 |  | 70.6 |  |  |  | 76.6 |  | > 100 |  |  |  | > 100 |  | > 100
Clc1ccc(N=CNc2ccc(-c3nc4ccccc4[nH]3)cc2)cc1 | > 100 | > 100 | > 100 | > 100 |  |  | > 100 | > 100 |  |  | 39.9 | > 100 | > 100 | > 100 | 39.6 | > 100 | > 100 | > 100 | 13.9 | > 100
CCCCCCCCCCCCCCCC(=O)NCC(OCC)OCC |  | > 100 |  | > 100 |  | > 100 |  | > 100 |  | > 100 µM |  | > 100 |  | > 100 |  |  |  | > 100 |  | > 100
O=[N+]([O-])c1cccc(C2=NOC3CCCC23)c1 (stereo not given) |  | > 100 |  | > 100 |  | > 100 |  | > 100 |  | > 100 µM |  | > 100 |  | > 100 |  |  |  | > 100 |  | > 100
Cn1nc(-c2ccccc2)c(C(=O)/C=C/c2ccccc2)c(N2CCCC2)c1=O |  | > 100 |  | 24.2 |  | 26.9 |  | 23.7 |  | 26.3 µM |  | 35.7 |  | 77.6 |  |  |  |  |  | 38.7
O=C1COc2cc3c(cc2N1)SCC(=O)N3 |  | > 100 |  | > 100 |  | > 100 |  | > 100 |  | > 100 µM |  | > 100 |  |  |  | > 100 |  | > 100 |  | > 100
